Experimental data published in article PMC11215771 (Journal of Medicinal Chemistry, 2024).

Key:
[1] = biological target: T1, hBACE1 D289N (proteolytic inactive mutant) in HEK293T cells (Homo sapiens, UniProt P56817, D289N); assay: Staining of transfected HEK293T cells, confocal imaging: BACE1 D289N; format: cell-based
T1 construct: expressed in transfected cells; host or cells: HEK293T
Experimental: Next, we explored the performance of the new Alexa-C3 compounds in living cells. Because of the rather hydrophilic properties, we exclusively targeted the cell membrane. To prevent intracellular accumulation, we first performed stainings at 4 °C arresting ATP-dependent endocytosis. […] All of the constructs were tagged at the C-terminus with either EGFP or mCherry to visualize subcellular expression. […] With these experiments, we want to exclude that a lack of staining is caused by an impaired accessibility of the protein by Alexa-C3 compounds. […] We then tested samples with BACE1 expression after fixation of the cells with paraformaldehyde (PFA).
(D) All conjugates were also probed on cells fixed with 4% paraformaldehyde (PFA) for 15 min prior to staining. […] Scale bars represent 5 μm (A–D) and 20 μm (E). […] Samples were excited at 488, 561, and 633 nm, respectively.
HEK293T cells (ATCC accession number CRL-11268) were maintained in Dulbecco's modified Eagle's medium (Sigma-Aldrich D6046) with 1g/L glucose, supplemented with 10% FCS (Merck) and 1% penicillin/streptomycin (PAA). CHO-K1 cells (ATCC #CCL-61) were maintained in modified phenol red free RPMI-1640 medium (Sigma-Aldrich, R7509), supplemented with 2 mM L-glutamine (Sigma-Aldrich, G7513), and 10% FCS (Merck). Cells were cultured at 37 °C in a 5% CO2 atmosphere. The following plasmids were used for transfection with the amount of DNA indicated (per 35 mm Petri dish): hBACE1 (NM_012104.4), 50 ng for single molecule recordings, 200 ng otherwise; hBACE1 fused to EGFP or mCherry, 75 ng; hBACE1 D289N fused to EGFP or mCherry, 75 ng; hBACE1 D289N, 200–400 ng; hBACE2 (NM_012105.3) fused to EGFP, 75 ng; hCathepsinD (HsCD00438327), Harvard PlasmID, 75 ng. Transfection was performed 24 h after plating using jetPEI (Polyplus) according to the manufacturer’s protocol.
For labeling, we plated HEK293T cells onto sterile 18 mm 1.5H borosilicate coverslips (VWR), coated with poly-D-lysine (Sigma). […]

[2] = biological target: T2, recombinant BACE1 extracellular domain (Homo sapiens, UniProt P56817); assay: FRET-based BACE1 inhibition (BACE1-activity FRET) assay; format: biochemical
T2 construct: purchased Thermo Fisher Scientific P2985
T2 sequence (P56817 46-457 limits assumed): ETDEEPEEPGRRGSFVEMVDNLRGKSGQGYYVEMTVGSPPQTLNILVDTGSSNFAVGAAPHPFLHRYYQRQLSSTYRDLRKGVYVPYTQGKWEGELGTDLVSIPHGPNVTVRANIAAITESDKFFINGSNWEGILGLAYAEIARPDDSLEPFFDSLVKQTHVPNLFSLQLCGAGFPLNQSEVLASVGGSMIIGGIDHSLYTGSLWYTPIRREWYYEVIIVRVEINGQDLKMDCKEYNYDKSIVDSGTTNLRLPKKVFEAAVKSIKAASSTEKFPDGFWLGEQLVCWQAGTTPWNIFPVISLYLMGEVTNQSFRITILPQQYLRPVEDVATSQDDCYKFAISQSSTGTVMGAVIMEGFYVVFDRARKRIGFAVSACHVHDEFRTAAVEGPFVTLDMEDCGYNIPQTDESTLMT
Experimental: In addition, we performed a fluorescence resonance energy transfer (FRET)-based BACE1 inhibition assay using the recombinant BACE1 extracellular domain and a BACE1 substrate coupled to a donor fluorophore, which is unquenched […] to the activity of BACE1. […] (Figure 1F).
Protease activity was determined using a FRET-based assay with recombinant BACE1 protein (Thermo Fisher Scientific; P2985). BACE1 inhibition was determined in end-points assays according to the manufacturer’s protocol except using a reduced volume of 12 μL in 384-well plates (Greiner, 788896). […] Fluorescence intensities were quantified with an infinite 200pro reader (Tecan) using top-reading mode. Data points were approximated using a logistic fit to determine half-inhibitory concentrations (pIC50).

T1 sequence (P56817 46-501 D289N): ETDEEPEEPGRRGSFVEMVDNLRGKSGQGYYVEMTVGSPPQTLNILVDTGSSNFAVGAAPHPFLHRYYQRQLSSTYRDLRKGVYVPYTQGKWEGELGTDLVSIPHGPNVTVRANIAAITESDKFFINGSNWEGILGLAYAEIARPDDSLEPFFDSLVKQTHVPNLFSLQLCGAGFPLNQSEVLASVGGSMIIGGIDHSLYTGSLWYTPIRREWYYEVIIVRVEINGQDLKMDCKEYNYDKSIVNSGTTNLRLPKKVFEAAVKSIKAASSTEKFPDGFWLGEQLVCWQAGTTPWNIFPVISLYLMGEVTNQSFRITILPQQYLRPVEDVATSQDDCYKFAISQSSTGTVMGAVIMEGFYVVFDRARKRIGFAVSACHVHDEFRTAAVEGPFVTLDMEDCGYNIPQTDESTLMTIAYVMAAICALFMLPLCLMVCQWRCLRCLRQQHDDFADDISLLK

staining of BACE1 D289N [1]	increase of potency of the pIC50 in a cell-free assay vs parent C3 ([2]; compared with unconjugated C3)	IC50 ([2]; logistic fit, n = 3 for each compound, read-out: pIC50 (negative logarithm of the half-inhibitory concentration) (converted))	impairment of affinity to the catalytic center by dye attachment ([2]; compared with unconjugated C3)	pIC50 (negative logarithm of the half-inhibitory concentration) ([2]; logistic fit, n = 3 for each compound)	SMILES
no appreciable fluorescence	10 fold	1.86 nM			C[C@@H](NC(=O)c1cc(C(=O)N[C@@H](Cc2ccccc2)[C@H](O)CNC2CC2)cc(N(C)S(=O)(=O)CCCNC(=O)c2ccc(C(=O)O)c(-c3c4ccc(=N)c(S(=O)(=O)O)c-4oc4c(S(=O)(=O)O)c(N)ccc34)c2)c1)c1ccccc1 [2-(6-Amino-3-iminio-4,5-disulfo-3H-xanthen-9-yl)-4-((3-(N-(3-(((2S,3R)-4-(cyclopropylamino)-3-hydroxy-1-phenylbutan-2-yl)carbamoyl)-5-(((R)-1-phenylethyl)carbamoyl)phenyl)-N-methylsulfamoyl)propyl)carbamoyl)benzoate]
not labeled			10 fold	6.53 (95% CI: 6.05–7.05)	C[C@@H](NC(=O)c1cc(C(=O)N[C@@H](Cc2ccccc2)[C@H](O)CNC2CC2)cc(N(C)S(=O)(=O)CCCNC(=O)CCCCCC2(C)C(/C=C/C=C/C=C3/N(CCCS(=O)(=O)O)c4ccc(S(=O)(=O)O)cc4C3(C)C)=[N+](CCCS(=O)(=O)[O-])c3ccc(S(=O)(=O)O)cc32)c1)c1ccccc1 (stereo partly drawn)
